Where two headings read alike, the source gives them in different places.
How the values were obtained:
COX-1 = target: T1, COX-1 (Cavia porcellus, UniProt H0V9X9); experiment: coagulation-induced Thromboxane B2 (TXB2) production inhibition using guinea pig whole blood after oral administration; format: in vivo; details: concomitant use with 1 mg/kg of clopidogrel, read-out: inhibitory rate of coagulation-induced TXB2 production relative to the vehicle group
T1 construct: from tissue; host or cells: whole blood from the abdominal aorta of male Hartley guinea pigs
T1 sequence (H0V9X9 25-553): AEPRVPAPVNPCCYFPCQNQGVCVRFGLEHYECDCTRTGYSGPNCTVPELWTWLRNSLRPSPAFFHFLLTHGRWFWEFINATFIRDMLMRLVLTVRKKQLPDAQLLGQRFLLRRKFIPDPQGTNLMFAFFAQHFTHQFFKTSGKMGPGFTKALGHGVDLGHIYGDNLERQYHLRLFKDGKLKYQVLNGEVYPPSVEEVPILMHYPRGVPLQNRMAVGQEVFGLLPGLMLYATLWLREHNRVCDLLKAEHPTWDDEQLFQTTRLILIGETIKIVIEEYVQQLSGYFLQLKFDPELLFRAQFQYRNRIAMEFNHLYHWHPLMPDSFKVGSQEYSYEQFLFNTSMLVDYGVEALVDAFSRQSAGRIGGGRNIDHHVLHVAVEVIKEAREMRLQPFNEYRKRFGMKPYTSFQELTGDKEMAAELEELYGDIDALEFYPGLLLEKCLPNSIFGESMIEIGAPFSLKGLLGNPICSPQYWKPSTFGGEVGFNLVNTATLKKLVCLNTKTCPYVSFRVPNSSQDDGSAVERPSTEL
Procedure: Examination on the selectivity of inhibitory effect on Cyclooxygenase (COX)-½ was carried out based on, as indexes, the coagulation-induced Thromboxane B2 (TXB2) production inhibition (COX-1 inhibition) and the LPS-induced Prostaglandin E2 (PGE2) production inhibition using guinea pig whole blood. As the vehicle, 0.5% methyl cellulose solution was used. By dissolving clopidogrel and suspending aspirin and Compound A therein, clopidogrel was orally administered 2 hours before the blood collection, and aspirin and Compound A 1 hour before thereof, to male Hartley guinea pigs which had been subjected to fasting (drug administered groups). On the other hand, as the vehicle administration group, clopidogrel was orally administered 2 hours before the blood collection, and the vehicle 1 hour before thereof. […] TXB2 concentration in the serum was measured using a TXB2 EIA Kit (mfd. by Cayman Chemicals). […] PGE2 concentration in the buffer was measured using a PGE2 EIA Kit (mfd. by Cayman Chemicals). Inhibitory rate of each of the TXB2 concentration and PGE2 concentration relative to the vehicle group was calculated using a calculation formula [100-(drug administration group concentration/solvent administration concentration)×100 (%)], and significant difference from the vehicle group was tested using Student's t-test.

[1] = tested on: iron chloride-induced thrombus (abdominal aorta); experiment: ferric chloride-induced thrombosis model in guinea pigs; format: in vivo, guinea pig; details: for total protein content of thrombi, concomitant administration compared with single administration groups: oral; for total protein content of thrombi, comparison with control (vehicle administration group): single drug, Student's t-test
Procedure: Verification of anti-thrombotic action was carried out using a ferric chloride-induced thrombosis model in guinea pigs, by partially modifying the experiment described in “Thrombosis Research” (1990, vol. 60, p. 269-280). Using 0.5% methyl cellulose solution as the vehicle, clopidogrel solution, aspirin suspension and Compound A suspension were prepared. […] Thrombus was induced by the following procedure. Each guinea pig was laparotomized while under pentobarbital anesthesia, and abdominal aorta was carefully detached from the surrounding tissues. […] The filter paper was removed 10 minutes thereafter, followed by 45 minutes of standing under subdued light. Both ends of the injured part of the detached blood vessel were closed with clips, and inside thereof was cut out using scissors to collect the blood vessel. By cutting open the thus collected blood vessel vertically, the thrombi formed in the blood vessel were taken out using a pair of tweezers and dissolved in 0.5 mol/1 of NaOH. Protein concentration was determined using DC protein assay kit (mfd. by BIO-RAD Laboratories) and in accordance with the protocols. Using total protein content of the formed thrombi as the index of anti-thrombotic effect, Statistical analysis between respective groups was performed by using Student's t-test.

[2] = cited from earlier work
[3] = thromboembolism patients, CAPRIE trial; cited from earlier work
gastric mucosa = experiment: influence of drugs upon gastric mucosa in normal guinea pigs; format: in vivo, guinea pig; details: for gastric mucosal lesion (length): 3 hours after administration
Procedure: Examination of the influence of drugs exerting upon gastric mucosa was carried out using normal guinea pigs. Using 0.5% methyl cellulose solution as the vehicle, clopidogrel solution, aspirin suspension and Compound A suspension were prepared. […] Also, in the evaluation at the time of concomitant administration of clopidogrel with aspirin or Compound A, in addition to 3 mg/kg of clopidogrel, 300 mg/kg of aspirin was simultaneously administered in the aspirin concomitant use group, and 100 mg/kg of Compound A in the Compound A concomitant use group. After 3 hours of the administration, each guinea pig was sacrificed by deep anesthesia with carbon dioxide, and the stomach was quickly removed. The gullet part of the extracted stomach was ligated, 15 ml of 4% neutral buffered formalin solution was injected from the pylorus part, and then light fixation was carried out by immersing in the same solution for about 1 hour after ligating the pylorus part. Thereafter, the stomach was cut open along the greater curvature of stomach, and the length (mm) of gastric mucosal lesion was measured using a stereoscopic microscope. Statistical analysis between respective groups was performed by using Wilcoxon rank sum test.

COX-2 = target: T2, COX-2 (Cavia porcellus, UniProt P70682); experiment: LPS-induced Prostaglandin E2 (PGE2) production inhibition using guinea pig whole blood after oral administration; format: in vivo; details: read-out: inhibitory rate of LPS-induced PGE2 production relative to the vehicle group
T2 construct: The sodium citrate-added whole blood was mixed with LPS to a final concentration of 100 μg/ml, incubated at 37° C. for 24 hours; from tissue; host or cells: citrated whole blood of male Hartley guinea pigs, stimulated with LPS
T2 sequence (P70682 18-604): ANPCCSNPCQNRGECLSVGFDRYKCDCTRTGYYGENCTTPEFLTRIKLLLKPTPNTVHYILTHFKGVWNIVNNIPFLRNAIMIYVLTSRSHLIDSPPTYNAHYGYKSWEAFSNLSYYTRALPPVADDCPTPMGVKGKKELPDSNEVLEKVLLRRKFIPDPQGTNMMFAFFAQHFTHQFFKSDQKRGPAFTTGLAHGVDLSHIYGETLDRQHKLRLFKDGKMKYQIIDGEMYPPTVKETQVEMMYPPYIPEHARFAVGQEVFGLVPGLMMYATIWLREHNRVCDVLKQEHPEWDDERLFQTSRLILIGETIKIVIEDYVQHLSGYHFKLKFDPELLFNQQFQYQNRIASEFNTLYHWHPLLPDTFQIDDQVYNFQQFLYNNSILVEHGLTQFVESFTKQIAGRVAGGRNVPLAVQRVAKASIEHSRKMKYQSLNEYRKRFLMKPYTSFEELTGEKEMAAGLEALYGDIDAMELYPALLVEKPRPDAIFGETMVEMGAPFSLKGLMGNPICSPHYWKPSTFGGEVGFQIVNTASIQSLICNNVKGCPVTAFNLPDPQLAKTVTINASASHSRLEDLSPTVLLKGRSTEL
Procedure: Examination on the selectivity of inhibitory effect on Cyclooxygenase (COX)-½ was carried out based on, as indexes, the coagulation-induced Thromboxane B2 (TXB2) production inhibition (COX-1 inhibition) and the LPS-induced Prostaglandin E2 (PGE2) production inhibition using guinea pig whole blood. As the vehicle, 0.5% methyl cellulose solution was used. […] On the other hand, as the vehicle administration group, clopidogrel was orally administered 2 hours before the blood collection, and the vehicle 1 hour before thereof. Each guinea pig was laparotomized while under ether anesthesia, 4 ml of blood was collected from the abdominal aorta, and 1 ml thereof was put into an anticoagulant-un-added tube and allowed to stand still and then 3 ml thereof was put into a tube charged with 300 μl of sodium citrate, followed by tipping mixing. […] PGE2 concentration in the buffer was measured using a PGE2 EIA Kit (mfd. by Cayman Chemicals). Inhibitory rate of each of the TXB2 concentration and PGE2 concentration relative to the vehicle group was calculated using a calculation formula [100-(drug administration group concentration/solvent administration concentration)×100 (%)], and significant difference from the vehicle group was tested using Student's t-test.

[4] = clopidogrel combined with aspirin, cited from earlier work
[5] = combination use of aspirin and clopidogrel, cited from earlier work

## CC(=O)Oc1ccccc1C(=O)O [aspirin]
COX-1; 300 mg/kg aspirin orally
  inhibition at 300 mg/kg: 100%
[1]; 300 mg/kg aspirin concomitantly with 1 mg/kg clopidogrel
  total protein content of thrombi, concomitant administration compared with single administration groups: significant difference from the clopidogrel single administration group (CLO 1), but a significant difference was not found in comparison with the aspirin single administration group (ASA 300)
[1]; aspirin 300 mg/kg orally 1 hour before thrombus induction
  total protein content of thrombi, comparison with control (vehicle administration group): statistically significant difference
[2]; 75 mg or less, meta-analysis
  event inhibition ratio: 13%
[2]; administration of from 75 to 150 mg, meta-analysis
  event inhibition ratio: 32%
[2]; administration of from 160 to 325 mg, meta-analysis
  event inhibition ratio: 26%
[2]; administration of from 500 to 1500 mg, meta-analysis
  event inhibition ratio: 19%
[2]; high risk patients, low dose aspirin
  event inhibition ratio: about 25%
[3]
  event onset ratio: 5.32 %/year
Gastric mucosa; 300 mg/kg oral, single drug
  gastric mucosal lesion (length): Gastric mucosal damage was clearly formed
Gastric mucosa; aspirin 300 mg/kg + clopidogrel 3 mg/kg vs aspirin 300 mg/kg alone
  gastric mucosal damage at concomitant administration with clopidogrel compared with aspirin alone: becomes worse
Gastric mucosa; aspirin 300 mg/kg concomitantly with clopidogrel 3 mg/kg, oral
  gastric mucosal lesion (length): Gastric mucosal damage was also clearly induced
COX-2
  inhibition at 300 mg/kg: 90.4%

## COc1ccc(-c2nc(OC)nn2-c2ccc(OC)cc2)cc1 [Compound A, 3-methoxy-1,5-bis(4-methoxyphenyl)-1H-1,2,4-triazole]
COX-1; 3 mg/kg Compound A orally
  inhibition at 3 mg/kg: 82.1%
[1]; 3 mg/kg Compound A + 1 mg/kg clopidogrel vs 300 mg/kg aspirin + 1 mg/kg clopidogrel
  total protein content of thrombi, compared with concomitant administration group of clopidogrel and aspirin: statistically significant difference from a concomitant administration group of clopidogrel and aspirin
[1]; 3 mg/kg Compound A concomitantly with 1 mg/kg clopidogrel
  total protein content of thrombi, concomitant administration compared with single administration groups: statistically significant difference from the clopidogrel single administration group (CLO 1) and Compound A single administration group (Comp A 3)
[1]; Compound A 3 mg/kg orally 1 hour before thrombus induction
  total protein content of thrombi, comparison with control (vehicle administration group): statistically significant difference
Gastric mucosa; 100 mg/kg oral, single drug
  gastric mucosal lesion (length): a clear action for gastric mucosa cannot be confirmed
Gastric mucosa; Compound A 100 mg/kg concomitantly with clopidogrel 3 mg/kg, oral
  gastric mucosal lesion (length): a clear action for gastric mucosa cannot be confirmed
COX-2; 3 mg/kg Compound A orally, concomitant use with 1 mg/kg of clopidogrel
  inhibition at 3 mg/kg: 10.1%

## COC(=O)[C@H](c1ccccc1Cl)N1CCc2sccc2C1 [clopidogrel, methyl (+)-(S)-2-(2-chlorophenyl)-2-(4,5,6,7-tetrahydrothieno[3,2-c]pyridin-5-yl)acetate]
[4]; non-ST increase ACS patients
  reduction of event ratio in combination use group in comparison with the aspirin alone group: 20%
[4]
  hemorrhagic side effects in the combination use group: significantly increased
[1]; clopidogrel 1 mg/kg orally 2 hours before thrombus induction
  total protein content of thrombi, comparison with control (vehicle administration group): statistically significant difference
[5]; low risk patients
  primary prevention effect: usefulness of the combination group was not found
[5]; patients of ischemic diseases
  secondary thrombotic event inhibition effect: significant secondary thrombotic event inhibition effect
[3]
  event onset ratio: 5.83 %/year
  lowering of the event onset ratio based on aspirin: 8.7%
Gastric mucosa; 100 mg/kg oral, single drug
  gastric mucosal lesion (length): a clear action for gastric mucosa cannot be confirmed

Source: patent publication US20110034504A1, “AGENT FOR PREVENTING AND/OR TREATING VASCULAR DISEASES” (Astellas Pharma Inc., priority 2008, published 2011)
